Measurements: BindingDB's records for doi:10.7270/Q2F18X5F (Nmmlsc, 2010)
pEC50: −log10 of the molar value.

Target: T1, Ammonium transporter MEP2 (Saccharomyces cerevisiae (strain ATCC 204508 / S288c), UniProt P41948)
T1 sequence (P41948 whole entry): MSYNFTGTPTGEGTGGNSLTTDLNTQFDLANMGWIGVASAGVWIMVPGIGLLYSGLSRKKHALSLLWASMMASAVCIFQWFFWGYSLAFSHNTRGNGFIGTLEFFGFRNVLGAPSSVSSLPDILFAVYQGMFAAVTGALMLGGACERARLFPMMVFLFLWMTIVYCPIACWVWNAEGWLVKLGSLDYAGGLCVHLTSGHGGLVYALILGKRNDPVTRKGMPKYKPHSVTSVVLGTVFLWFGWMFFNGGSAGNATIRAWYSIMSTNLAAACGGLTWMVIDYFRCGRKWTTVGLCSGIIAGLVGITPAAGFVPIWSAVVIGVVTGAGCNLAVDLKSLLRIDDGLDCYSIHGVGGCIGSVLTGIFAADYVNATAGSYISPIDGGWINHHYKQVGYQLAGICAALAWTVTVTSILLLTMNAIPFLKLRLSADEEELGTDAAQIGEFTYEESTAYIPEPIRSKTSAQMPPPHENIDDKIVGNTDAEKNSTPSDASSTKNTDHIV
Assay: TOR pathway reporter MEP2-GFP, concentration series – S. cerevisiae, flow cytometry GFP, MLPCN hits, dose response (AID 2742)

pEC50: < 4.48
Structure (SMILES): CCN1/C(=C/c2ccc3cc(C)ccc3[n+]2CC)Sc2ccc3sccc3c21 [MLS000724336]
